Results reported in the CheMixHub viscosity set.
± gives the uncertainty stated by the source.

Assay: xn = mol fraction of the nth substance listed

CC#N + CCCO
viscosity [mPa·s]
Conditions	293.15 K	298.15 K	303.15 K	308.15 K	313.15 K	323.15 K
101 kPa, x1 = 0.0674	–	1.557 ± 0.02	1.267 ± 0.016	1.035 ± 0.013	–	–
101 kPa, x1 = 0.1534	–	1.243 ± 0.015	1.027 ± 0.013	0.845 ± 0.01	–	–
101 kPa, x1 = 0.2933	–	0.903 ± 0.011	0.761 ± 0.009	0.645 ± 0.008	–	–
101 kPa, x1 = 0.3889	–	0.738 ± 0.009	0.631 ± 0.007	0.54 ± 0.006	–	–
101 kPa, x1 = 0.4881	–	0.622 ± 0.007	0.539 ± 0.006	0.469 ± 0.006	–	–
101 kPa, x1 = 0.5995	–	0.519 ± 0.006	0.459 ± 0.005	0.407 ± 0.005	–	–
101 kPa, x1 = 0.703	–	0.438 ± 0.005	0.39 ± 0.005	0.351 ± 0.004	–	–
101 kPa, x1 = 0.7951	–	0.393 ± 0.005	0.354 ± 0.004	0.321 ± 0.004	–	–
101 kPa, x1 = 0.909	–	0.361 ± 0.004	0.329 ± 0.004	0.303 ± 0.004	–	–
101.3 kPa, x1 = 0.1388	–	1.295 ± 0.031	1.166 ± 0.028	1.053 ± 0.026	0.983 ± 0.024	–
101.3 kPa, x1 = 0.2787	–	0.922 ± 0.023	0.842 ± 0.021	0.769 ± 0.02	0.706 ± 0.018	–
101.3 kPa, x1 = 0.3856	–	0.747 ± 0.019	0.695 ± 0.018	0.634 ± 0.017	–	–
101.3 kPa, x1 = 0.4939	–	0.615 ± 0.016	0.574 ± 0.016	0.53 ± 0.015	–	–
101.3 kPa, x1 = 0.5945	–	0.522 ± 0.014	0.498 ± 0.014	0.465 ± 0.013	–	–
101.3 kPa, x1 = 0.6887	–	0.463 ± 0.013	0.436 ± 0.013	0.413 ± 0.012	–	–
101.3 kPa, x1 = 0.7735	–	0.421 ± 0.012	0.399 ± 0.012	0.38 ± 0.011	–	–
101.3 kPa, x1 = 0.8539	–	0.391 ± 0.012	0.374 ± 0.011	0.355 ± 0.011	–	–
101.3 kPa, x1 = 0.9294	–	0.365 ± 0.011	0.352 ± 0.011	0.334 ± 0.01	–	–
101.32 kPa, x1 = 0.0214	2.052 ± 0.016	–	1.623 ± 0.013	–	1.298 ± 0.011	1.052 ± 0.009
101.32 kPa, x1 = 0.0926	1.636 ± 0.013	–	1.329 ± 0.011	–	1.089 ± 0.009	0.8994 ± 0.0076
101.32 kPa, x1 = 0.131	1.467 ± 0.012	–	1.195 ± 0.01	–	0.9876 ± 0.0082	0.8269 ± 0.0071
101.32 kPa, x1 = 0.2287	1.114 ± 0.009	–	0.9375 ± 0.0078	–	0.7852 ± 0.0067	0.665 ± 0.0058
101.32 kPa, x1 = 0.3661	0.8314 ± 0.007	–	0.7 ± 0.0061	–	0.5983 ± 0.0053	0.5179 ± 0.0047
101.32 kPa, x1 = 0.4647	0.6986 ± 0.006	–	0.5975 ± 0.0053	–	0.5164 ± 0.0047	0.451 ± 0.0042
101.32 kPa, x1 = 0.5532	0.5951 ± 0.0053	–	0.5163 ± 0.0047	–	0.4519 ± 0.0042	0.3984 ± 0.0038
101.32 kPa, x1 = 0.6088	0.5441 ± 0.0049	–	0.4725 ± 0.0044	–	0.4163 ± 0.004	0.3701 ± 0.0036
101.32 kPa, x1 = 0.7151	0.4665 ± 0.0043	–	0.4106 ± 0.0039	–	0.3663 ± 0.0036	0.3284 ± 0.0033
101.32 kPa, x1 = 0.8071	0.4122 ± 0.0039	–	0.3683 ± 0.0036	–	0.3317 ± 0.0033	0.3003 ± 0.0031
101.32 kPa, x1 = 0.8778	0.3835 ± 0.0037	–	0.345 ± 0.0034	–	0.3126 ± 0.0032	0.2849 ± 0.003
